Consider five compounds from patent publication US8680152B2, “Cathepsin inhibitors for the treatment of bone cancer and bone cancer pain” (Virobay, Inc., priority 2011, dated 2014).

Like-named read-outs stand apart in the source and are kept apart here.

The test system of one series is human osteoclasts. In words: Inhibition of bone resorption in vitro (human osteoclasts on bovine bone slices). To be noted: CTX/TRACP5b, FIG. 7. Format: cell-based. As to the method:
FIG. 7. Inhibition of Bone Resorption In Vitro. […] Compounds of the present invention were added to cultured human differentiated bone marrow-derived osteoclasts cultured on bovine bone slices allowing them to resorb bone. Tartrate-resistant acid phosphatase 5b activity (TRACP 5b) was measured in the culture medium as an index of the number of osteoclasts formed in each well, and C-terminal cross-linked telopeptides of type 1 collagen (CTX) was measured in the culture medium to quantitate bone resorption. […] The irreversible protease inhibitor E64 as well as the reversible specific cathepsin K protease inhibitor odanacatib were included as assay controls.
Compound A was assessed in an in vitro assay for its efficacy in blocking resorption activity of human osteoclasts in vitro. Bone marrow-derived human osteoclast precursor cells were cultured on bovine bone slices for 7 days in conditions that allowed osteoclast differentiation, and allowing them to differentiate into bone-resorbing osteoclasts. After completion of osteoclast differentiation at day 7, the culture medium was removed and new culture medium for assessing osteoclast activity was added. Test compounds including Compound A was added to the cultures at this stage on day 7. Cultures were then allowed to continue for an additional 3 days allowing them to resorb bone. Concentrations of Compound assessed were 1, 3, 10, 30, 100, 300, and 1000 nM in 8 replicates. Tartrate-resistant acid phosphatase 5b activity (TRACP 5b) was measured from the culture medium collected on day 7 indicating the number of mature osteoclasts formed in each well before adding compounds. C-terminal cross-linked telopeptides of type 1 collagen (CTX) were measured form the culture medium collected at day 10 to quantitate bone resorption during days 7-10. […] The study was performed in […] with each containing a baseline group including vehicle, a control group with a reference compound E64, and 7 concentrations of the test compound to determine an EC50 for inhibition of resorption activity.

The target in the next series is Human Cathepsin V (Homo sapiens, UniProt O60911). The experiment in a line: Cathepsin V assay. Particulars: for inhibition at 0.1 µM: single data point of 100 nM. The class given is biochemical. As to the method: The assays were performed similarly to those described above. Human Cathepsin V: The buffer used to assay this enzyme consisted of: 50 mM MES (pH 6.5), 2.5 mM DTT, 2.5 mM EDTA, 100 mM NaCl, 0.01% BSA and 10% DMSO. Recombinant human cathepsin V was supplied at 2.0 nM. Substrate, Z-Phe-Arg-AMC, was supplied at 25 μM. Apparent inhibition constants (Ki) were calculated from the enzyme progress curves using standard mathematical models.

For the next series, the target named is cathepsin L (Homo sapiens, UniProt P07711). The experiment in a line: Cathepsin L assay. The class given is biochemical. To be noted: for inhibition at 0.1 µM: single data point of 100 nM. As to the method:
(§1) Solutions of test compounds in varying concentrations were prepared in 10 μL of dimethyl sulfoxide (DMSO) and then diluted into assay buffer (40 μL, comprising: MES, 50 mM (pH 5.5); EDTA, 2.5 mM; and DTT, 2.5 mM). Human cathepsin L (0.05 pMoles in 25 μL of assay buffer) was added to the dilutions. The assay solutions were mixed for 5-10 seconds on a shaker plate, covered and incubated for 30 min at room temperature. Z-Phe-Arg-AMC (1 nMoles in 25 μL of assay buffer) was added to the assay solutions and hydrolysis was followed spectrophotometrically at (λ 460 nm) for 5 min. Apparent inhibition constants (Ki) were calculated from the enzyme progress curves using standard mathematical models.

The target in a further series is Human cathepsin S (Homo sapiens, UniProt P25774). In words: Cathepsin S assay. The class given is biochemical. As to the method:
(§2) Solutions of test compounds in varying concentrations were prepared in 10 μL of dimethyl sulfoxide (DMSO) and then diluted into assay buffer (40 μL, comprising: MES, 50 mM (pH 6.5); EDTA, 2.5 mM; and NaCl, 100 mM); β-mercaptoethanol, 2.5 mM; and BSA, 0.00%. Human cathepsin S (0.05 pMoles in 25 μL of assay buffer) was added to the dilutions. The assay solutions were mixed for 5-10 seconds on a shaker plate, covered and incubated for 30 min at room temperature. Z-Val-Val-Arg-AMC (4 nMoles in 25 μL of assay buffer containing 10% DMSO) was added to the assay solutions and hydrolysis was followed spectrophotometrically (at λ 460 nm) for 5 min. Apparent inhibition constants (Ki) were calculated from the enzyme progress curves using standard mathematical models.

The target in a further series is cathepsin B (Homo sapiens, UniProt P07858). In words: Cathepsin B assay. Format: biochemical. As to the method:
as §1, with “in 101” for “in 10”, “comprising: N,N-bis(2-hydroxyethyl)-2-aminoethanesulfonic acid (BES),” for “comprising: MES,”, “(pH 6); polyoxyethylenesorbitan monolaurate, 0.05%;” for “(pH 5.5); EDTA, 2.5 mM;”, “and dithiothreitol (DTT),” for “and DTT,”, “cathepsin B (0.025” for “cathepsin L (0.05”, “temperature. Z-FR-AMC (20” for “temperature. Z-Phe-Arg-AMC (1”

Series [1] relates to multiple human cathepsin enzymes. The experiment in a line: Cathepsin inhibitory profile on multiple cathepsin enzymes. The class given is biochemical. The text has this: FIG. 1. […] Methods are similar to those set forth in the Biological Examples.
The target of series [2] is T1, Cathepsin K (huRab), humanized rabbit cathepsin K enzyme (Oryctolagus cuniculus, UniProt P43236).
T1 sequence (P43236 1-329 Y175D/V274L): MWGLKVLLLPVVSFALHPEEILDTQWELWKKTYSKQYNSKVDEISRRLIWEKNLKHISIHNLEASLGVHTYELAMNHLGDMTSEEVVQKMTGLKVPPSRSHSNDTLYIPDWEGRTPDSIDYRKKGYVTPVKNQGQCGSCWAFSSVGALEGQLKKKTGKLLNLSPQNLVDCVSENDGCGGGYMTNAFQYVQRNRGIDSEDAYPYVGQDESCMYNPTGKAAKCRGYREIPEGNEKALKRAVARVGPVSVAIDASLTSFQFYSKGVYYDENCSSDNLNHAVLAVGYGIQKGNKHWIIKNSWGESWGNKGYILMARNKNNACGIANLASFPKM
In words: Cathepsin K (huRab) assay. The class given is biochemical. As to the method:
FIG. 5. Cathepsin inhibitory profiles for Compound A, Compound B, and Compound C. All human enzymes with the exception of CatK HuRab. This is a humanized rabbit cathepsin K enzyme where the key amino acids in the active site of rabbit cathepsin K have been converted to match the amino acids found in the active site of human cathepsin K. The remainder of the enzyme is rabbit. Methods are as set forth in the Examples.
as §1, with “K (0.0906” for “L (0.05”, “(4” for “(1”

In a further series the target is T2, Human cathepsin F (Homo sapiens, UniProt Q9UBX1).
T2 sequence (Q9UBX1 271-484): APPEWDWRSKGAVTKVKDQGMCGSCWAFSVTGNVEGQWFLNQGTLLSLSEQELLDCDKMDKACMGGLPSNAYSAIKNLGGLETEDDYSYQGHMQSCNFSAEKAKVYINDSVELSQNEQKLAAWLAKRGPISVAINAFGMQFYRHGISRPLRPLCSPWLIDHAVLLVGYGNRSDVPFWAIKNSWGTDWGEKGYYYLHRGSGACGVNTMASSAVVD
In words: Cathepsin F assay. The class given is biochemical. The method, then: as §2, with “DTT,” for “β-mercaptoethanol,”, “0.01%.” for “0.00%.”, “F (0.1” for “S (0.05”, “Z-Phe-Arg-AMC (2” for “Z-Val-Val-Arg-AMC (4”, “Apparent inhibition constants (Ki) were calculated from the enzyme progress curves using standard mathematical models.” left out

[3] abbreviates: tested at one concentration, 100 nM.

Chain of Human Cathepsin V (O60911 114-334): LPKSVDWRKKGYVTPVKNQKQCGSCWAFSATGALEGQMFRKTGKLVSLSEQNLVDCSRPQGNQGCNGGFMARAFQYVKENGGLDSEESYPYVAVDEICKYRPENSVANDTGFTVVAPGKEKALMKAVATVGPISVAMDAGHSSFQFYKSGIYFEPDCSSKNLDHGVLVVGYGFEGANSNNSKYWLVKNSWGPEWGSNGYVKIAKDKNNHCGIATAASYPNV
Chain of cathepsin L (P07711 114-333): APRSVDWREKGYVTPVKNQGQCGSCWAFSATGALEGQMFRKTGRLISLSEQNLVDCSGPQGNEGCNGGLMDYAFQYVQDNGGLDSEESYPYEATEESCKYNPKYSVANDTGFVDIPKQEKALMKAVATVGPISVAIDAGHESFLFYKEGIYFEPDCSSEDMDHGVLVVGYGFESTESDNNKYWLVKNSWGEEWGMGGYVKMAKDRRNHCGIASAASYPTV
Chain of Human cathepsin S (P25774 115-331): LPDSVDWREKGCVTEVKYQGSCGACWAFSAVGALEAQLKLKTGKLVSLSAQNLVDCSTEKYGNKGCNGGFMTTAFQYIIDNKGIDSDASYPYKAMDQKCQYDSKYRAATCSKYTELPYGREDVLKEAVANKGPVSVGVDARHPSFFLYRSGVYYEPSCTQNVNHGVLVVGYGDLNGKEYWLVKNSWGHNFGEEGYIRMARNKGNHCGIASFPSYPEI

For `CC[C@H](NC(=O)[C@H](CS(=O)(=O)c1cccc(S(C)(=O)=O)c1)N[C@@H](c1ccc(F)cc1)C(F)(F)F)C(=O)C(=O)NC1CC1` [Compound B, (S)—N-Cyclopropyl-3-((R)-3-((3-(methylsulfonyl)phenyl)sulfonyl)-2-(((S)-2,2,2-trifluoro-1-(4-fluorophenyl)ethyl)amino)propanamido)-2-oxopentanamide], the “inhibition of bone resorption in vitro” value in the series on human osteoclasts is “inhibit bone resorption in vitro, with similar potency to Compound A”.

Turning to `CC[C@H](NC(=O)[C@H](CC(F)(F)CC1CC1)NCC(F)(F)Oc1ccc(F)cc1)C(=O)C(=O)NC1CC1` [Compound D, (S)-5-cyclopropyl-N-((S)-1-(cyclopropylamino)-1,2-dioxopentan-3-yl)-2-(2,2-difluoro-2-(4-fluorophenoxy)ethylamino)-4,4-difluoropentanamide], the inhibition at 0.1 µM is 63% against Human Cathepsin V and 75% against cathepsin L. Further, the IC50 is below 0.1 µM on Human Cathepsin V (setting [3]), below 0.1 µM against cathepsin L (setting [3]), 0.000267 µM against Human cathepsin S and 0.023 µM against cathepsin B. In the series with human osteoclasts, the “inhibition of bone resorption in vitro” value was “inhibit bone resorption in vitro, with similar potency to Compound A”. In series [1], the “cathepsin inhibitory profile on multiple cathepsin enzymes” value is given as “very favorable cathepsin inhibitory profile”.

On to `CC[C@H](NC(=O)[C@H](CC(F)(F)CC1CC1)N[C@@H](c1ccc(F)cc1)C(F)(F)F)C(=O)C(=O)NC1CC1` [Compound E, (S)-5-cyclopropyl-N—((S)-1-(cyclopropylamino)-1,2-dioxopentan-3-yl)-4,4-difluoro-2-(((S)-2,2,2-trifluoro-1-(4-fluorophenyl)ethyl)amino)pentanamide], for which the inhibition at 0.1 µM on Human Cathepsin V was at least 98%; against cathepsin L, at least 98%; on cathepsin B (one concentration, 100 nM) it was at least 98%. Moreover, the concentration for half-maximal inhibition (IC50) on Human Cathepsin V (setting [3]) was below 0.1 µM; on cathepsin L (setting [3]) it was below 0.1 µM; against Human cathepsin S, 0.000332 µM; on cathepsin B it was below 0.1 µM. The “inhibition of bone resorption in vitro” value in the series on human osteoclasts was “inhibit bone resorption in vitro, with similar potency to Compound A”.

In the case of `CC[C@H](NC(=O)[C@H](CS(=O)(=O)Cc1cccnc1)N[C@@H](c1ccc(F)cc1)C(F)(F)F)C(=O)C(=O)NC1CC1` [Compound F, (S)—N-cyclopropyl-2-oxo-3-((R)-3-((pyridin-3-ylmethyl)sulfonyl)-2-(((S)-2,2,2-trifluoro-1-(4-fluorophenyl)ethyl)amino)propanamido)pentanamide], the IC50 against Human Cathepsin V was below 0.00025 µM; on cathepsin L, 0.0003 µM; in [2] it was 0.028 µM; on Human cathepsin S it was 0.00034 µM; at Human cathepsin F it was 0.074 µM; at cathepsin B, 0.0025 µM. Further, the “inhibition of bone resorption in vitro” value in the series on human osteoclasts was “inhibit bone resorption in vitro, with similar potency to Compound A”.

`CC[C@H](NC(=O)[C@H](CCS(C)(=O)=O)N[C@@H](c1ccc(F)cc1)C(F)(F)F)C(=O)C(=O)NC1CC1` [Example 1, N-cyclopropyl-3S-{4-methanesulfonyl-2S-[2,2,2-trifluoro-1S-(4-fluoro-phenyl)-ethylamino]-butyrylamino}-2-oxo-pentanamide]: the melting point lay within 152.5 to 153.5 °C.

One may read the inhibition as the drop in the measured response relative to a control, in per cent. Higher therefore signals a response far below the control. In general, IC50 refers to the point on the concentration scale where inhibition reaches its midpoint. Broadly, the melting point is the temperature, or range, at which the solid turns liquid.
